Consider five compounds from publication PMC8839448, “Novel Pyridothienopyrimidine Derivatives: Design, Synthesis and Biological Evaluation as Antimicrobial and Anticancer Agents” (Molecules, 2022).

Converted amounts (≈) assume the structure as drawn.

For data set [1], the system named is S. aureus. The settings on record: Figure 1, reported agents; ref [21],[22],[33],[34]; cited from earlier work.
Data set [2] concerns E. coli. The following applies: Figure 1, reported agents; ref [21],[22],[33],[34]; cited from earlier work.
The test system of data set [3] is HepG2 and MCF-7. The settings on record: Figure 1, reported agents; ref [21],[22],[33],[34]; read-out: IC50 range HepG2 and MCF-7; cited from earlier work.
Data set [4] can be described thus: Cytotoxicity against normal cells, MTT assay. The following applies: human, WISH normal cells.
Text: The cytotoxicity was estimated as IC50 in μM for the tested compounds and the reference drug doxorubicin, and are listed in Table 3.
Data set [5] relates to hepatocellular carcinoma (HepG2) cells. Kind of data set: Cytotoxicity, MTT assay. It counts as cell-based. The following applies: Homo sapiens, read-out: Cytotoxic activity IC50 HepG2. On the technique in general: Formazan colour is commonly taken as a measure of viable cells.
Data set [6] concerns Escherichia coli 8739. Put plainly: In vitro antibacterial activity, MIC by broth dilution. The following applies: Gram −ve bacteria. Type of data set: cell-based. For orientation: In broth dilution the organism is exposed to a series of concentrations in liquid medium.
The test system of data set [7] is Saccharomycese cerevisiae. Put plainly: In vitro antifungal activity, MIC by broth dilution. Type of data set: cell-based. The settings on record: Saccharomyces cerevisiae, yeast, read-out: MIC S. cerevisiae.
Data set [8] concerns all the tested yeasts and fungi strains. Put plainly: Antifungal MIC, range over the panel. Type of data set: cell-based.
Data set [9] relates to Candida albicans 10231. Kind of data set: In vitro antifungal activity, MIC by broth dilution. It counts as cell-based. The settings on record: yeast, read-out: MIC C. albicans.
For data set [10], the system named is breast cancer (MCF-7) cells. Kind of data set: Cytotoxicity, MTT assay. Type of data set: cell-based, human. The settings on record: Homo sapiens, MCF7, MCF7 cells, read-out: Cytotoxic activity IC50 MCF7.
Data set [11] deals with Candida tropicals 750. Put plainly: In vitro antifungal activity, MIC by broth dilution. It counts as cell-based. The following applies: yeast, read-out: MIC C. tropicals.
Data set [12] has as its system Bacillus subtilis 6633. Put plainly: In vitro antibacterial activity, MIC by broth dilution. The following applies: Gram +ve bacteria, read-out: MIC B. subtilis. Type of data set: cell-based.
Data set [13] deals with Staphylococcus aureus 25923. The data set is described as above. It counts as cell-based. The following applies: Gram +ve bacteria, read-out: MIC S. aureus.
The test system of data set [14] is Salmonella typhimurium 14028. The data set is described as above. The following applies: Salmonella enterica, Gram −ve bacteria, read-out: MIC S. typhimurium. Type of data set: cell-based.
Data set [15] concerns Bacillus cereus 33018. Described as above. Type of data set: cell-based. The following applies: Gram +ve bacteria, read-out: MIC B. cereus.
Data set [16] relates to HepG2 and MCF-7 cancer cell lines. Kind of data set: Cytotoxicity, MTT assay, range over both cancer cell lines. It counts as cell-based, human. The following applies: for IC50: Homo sapiens, range over HepG2 and MCF-7, read-out: IC50 range, cytotoxic activity against both cell lines.
Data set [17] concerns the target EGFR kinase (Homo sapiens, UniProt P00533). Kind of data set: In vitro EGFR kinase inhibitory assay (Kinase-Glo MAX kit). The following applies: EGFR IC50, EGFR kinase assay kit, triplicate, ± SD. A general note: Kinase-Glo measures the ATP left after a reaction by luminescence.
Experimental: The assay kit is designed to measure EGFR Kinase activity for screening applications using Kinase-Glo® MAX as a detection reagent. The luminescence was measured using a microplate reader (Infinite M200 microplate reader, Tecan, Männedorf, Switzerland) [54]. All assays were performed in triplicate and the relative inhibition (%) of inhibitors was then calculated via comparison with the control with no inhibitor.
In vitro EGFR kinase assay
The assay Kit is designed to measure EGFR Kinase
activity for screening applications using Kinase-Glo® MAX as a detection reagent
using Kinase-Glo® MAX as a detection reagent. Thaw 5x Kinase Buffer 1: ATP and
PTK substrate Poly (Glu:Tyr 4:1) (10 mg/ml) kinase was provided. Then the master
mixture was prepared: N wells x (6 μl 5x Kinase Buffer 1 + 1 µl ATP (500 µM) + 1
µl PTK substrate Poly (Glu:Tyr 4:1) (10 mg/ml)+ 17 μl water) and 25 μl of the
mixture was added to every well. The tested compounds were dissolved in DMSO,
well labeled as “Positive Control", 5 μl of the same solution of the reference drug
erlotinib and “Blank”, 5 μl of the same solution without inhibitor (Inhibitor buffer).
ml of 1x Kinase Buffer 1) was prepared by mixing 600 µl of 5x Kinase Buffer 1 with
The reaction initiated by adding 20 µl of diluted EGFR enzyme to the wells designated “Positive Control” and "Test Inhibitor Control". Incubate at 30°C for 40
minutes. Thaw Kinase-G lo Max reagent. After the 40 minute reaction, 50 µl of
Kinase-Glo Max reagent was added to each well. The plate was covered with
aluminum foil and incubate at room temperature for 15 minutes. Then the
luminescence was measured using the microplate reader (Infinite M200 microplate
reader, Tecan, Männedorf, Switzerland). All assays were performed in triplicate. The
relative inhibition (%) of inhibitors were then calculated compared to the control with
no inhibitor. Then the IC50 values and their standard deviation (SD) for the tested
compounds and the reference drug were determined in (nM).
Data set [18] relates to five bacterial and five fungal strains. Put plainly: Antimicrobial MIC, range over bacterial and fungal strains. The following applies: range over bacterial and fungal strains. Type of data set: cell-based.
Data set [19] relates to Aspergillus niger EM77 (KF774181). Put plainly: In vitro antifungal activity, MIC by broth dilution. It counts as cell-based. The settings on record: fungi.
For data set [20], the system named is five bacterial strains. Kind of data set: Antibacterial MIC, range over the panel. Type of data set: cell-based.
In data set [21] the test system is Aspergillus flavus. Kind of data set: In vitro antifungal activity, MIC by broth dilution. The following applies: fungi. Type of data set: cell-based.
Data set [22] deals with S. typhimurium. The following applies: Figure 1, reported agents; ref [21],[22],[33],[34]; cited from earlier work.
Data set [23] has as its system B. cereus. The following applies: Figure 1, reported agents; ref [21],[22],[33],[34]; cited from earlier work.

EGFR kinase, sequence (P00533 25-1210): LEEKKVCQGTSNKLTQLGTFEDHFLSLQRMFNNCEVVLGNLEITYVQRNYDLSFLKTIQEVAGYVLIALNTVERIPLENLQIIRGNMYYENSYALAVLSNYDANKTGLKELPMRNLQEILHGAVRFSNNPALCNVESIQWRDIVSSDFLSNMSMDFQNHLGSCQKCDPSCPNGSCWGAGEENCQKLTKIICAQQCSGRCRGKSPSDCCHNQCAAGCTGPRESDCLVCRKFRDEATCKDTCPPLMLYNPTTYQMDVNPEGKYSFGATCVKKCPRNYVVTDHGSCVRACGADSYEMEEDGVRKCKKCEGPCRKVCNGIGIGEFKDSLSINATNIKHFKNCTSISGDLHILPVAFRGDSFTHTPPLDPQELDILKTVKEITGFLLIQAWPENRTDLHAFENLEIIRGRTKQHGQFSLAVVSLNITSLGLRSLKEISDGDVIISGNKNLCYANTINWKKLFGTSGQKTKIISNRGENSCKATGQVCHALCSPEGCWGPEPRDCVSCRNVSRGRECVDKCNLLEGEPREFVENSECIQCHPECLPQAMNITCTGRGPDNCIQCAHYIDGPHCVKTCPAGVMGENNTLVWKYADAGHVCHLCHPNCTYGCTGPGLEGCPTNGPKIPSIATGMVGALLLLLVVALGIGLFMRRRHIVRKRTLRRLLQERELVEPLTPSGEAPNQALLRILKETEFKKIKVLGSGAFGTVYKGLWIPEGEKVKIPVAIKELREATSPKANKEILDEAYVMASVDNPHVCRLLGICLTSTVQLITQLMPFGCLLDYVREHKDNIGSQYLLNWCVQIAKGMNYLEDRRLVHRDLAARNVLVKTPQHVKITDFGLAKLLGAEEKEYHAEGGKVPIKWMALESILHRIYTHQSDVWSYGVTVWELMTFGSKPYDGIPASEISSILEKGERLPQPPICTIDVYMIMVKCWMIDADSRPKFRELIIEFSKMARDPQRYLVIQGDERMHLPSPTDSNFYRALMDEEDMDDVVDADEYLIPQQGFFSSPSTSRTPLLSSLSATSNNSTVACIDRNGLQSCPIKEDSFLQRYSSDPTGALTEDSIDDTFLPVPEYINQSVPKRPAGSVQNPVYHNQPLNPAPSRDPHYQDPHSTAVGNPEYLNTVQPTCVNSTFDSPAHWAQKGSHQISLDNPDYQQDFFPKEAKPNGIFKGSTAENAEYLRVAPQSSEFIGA

On to `CCOC(=O)c1sc2nc(-c3ccc(OC)cc3)cc(-c3cccs3)c2c1N` [III], for which, in data set [1], the “MIC S. aureus” value was 7.80 µg/mL (≈ 19 µM). Moreover, the “MIC E. coli” value in [2] was 7.80 µg/mL (≈ 19 µM). In addition, the IC50 in [3] was 33200 to 34800 nM.
`Cc1ccc(-c2cc(-c3ccccc3)nc3sc4c(=O)[nH]c(CN5CCOCC5)nc4c23)cc1` [Compound 5a, 2-(Morpholinomethyl)-7-phenyl-9-(p-tolyl)pyrido[3′,2′:4,5]thieno[3,2-d]pyrimidin-4(3H)-one] had a melting point of 245 °C. In data set [4], this compound gave an IC50 of 408000 ± 15900 nM. The IC50 in data set [5] was 1990 ± 90 nM. In addition, in [6], the minimum inhibitory concentration (MIC) came to 8 µg/mL (≈ 17.1 µM). Also, the MIC in [7] is 8 µg/mL (≈ 17.1 µM). Moreover, the “MIC range against the tested yeasts and fungi strains” value in data set [8] fell in the range of 4 to 16 µg/mL. In data set [9], the MIC stood at 16 µg/mL (≈ 34.1 µM). Moreover, in data set [10], the IC50 came out at 2790 ± 180 nM. The minimal inhibitory concentration (MIC) in [11] worked out at 8 µg/mL (≈ 17.1 µM). Moreover, in data set [12], the MIC worked out at 8 µg/mL (≈ 17.1 µM). Also, the MIC in [13] came to 8 µg/mL (≈ 17.1 µM). Moreover, the MIC in data set [14] is 16 µg/mL (≈ 34.1 µM). Besides, in data set [15], the MIC was found to be 16 µg/mL (≈ 34.1 µM). Further, the IC50 in data set [16] was 1170 to 2790 nM. The compound further had an IC50 in [17] of 9.66 ± 0.08 nM. Also, the “MIC range, antibacterial and antifungal” value in data set [18] lay within 4 to 16 µg/mL. In [19], it took 16 µg/mL (≈ 34.1 µM) to inhibit growth (MIC). Besides, in [20], the “MIC range against the tested bacterial strains” value was in the range of 8 to 16 µg/mL. In data set [21], this compound gave a minimal inhibitory concentration (MIC) of 8 µg/mL (≈ 17.1 µM).
Consider `NC(=O)c1sc2nc(-c3ccco3)cc(-c3cccs3)c2c1N` [I], for which the “MIC E. coli” value in [2] is 15.60 µg/mL (≈ 45.7 µM). In addition, the “MIC S. typhimurium” value in data set [22] is 15.60 µg/mL (≈ 45.7 µM).
The compound `Cc1ccc(-c2cc(-c3ccccc3)nc3sc4c(c23)NC2(CCCC2)N=C4SCC2CO2)cc1` (stereo not shown) [Compound 9b, 4′-((Oxiran-2-ylmethyl)sulfanyl)-7′-phenyl-9′-(p-tolyl)-1′H-spiro[cyclopentane-1,2′-pyrido[3′,2′:4,5]thieno[3,2-d]pyrimidine]] showed a melting point of 120 °C. The compound further yielded a half-inhibitory concentration (IC50) in [4] of 418000 ± 14100 nM. In addition, the IC50 in data set [5] amounted to 1170 ± 90 nM. Besides, 4 µg/mL (≈ 8.04 µM) was the least that counted as inhibitory in data set [6] (MIC). Besides, in data set [7], the minimum inhibitory concentration (MIC) was 8 µg/mL (≈ 16.1 µM). For the same compound, the “MIC range against the tested yeasts and fungi strains” value in [8] was 4 to 16 µg/mL. Besides, in data set [9], the minimum inhibitory concentration (MIC) turned out to be 4 µg/mL (≈ 8.04 µM). The IC50 in [10] came out at 1520 ± 80 nM. Also, the MIC in [11] was determined as 4 µg/mL (≈ 8.04 µM). For the same compound, in [12], the MIC was 4 µg/mL (≈ 8.04 µM). Besides, the minimum inhibitory concentration (MIC) in data set [13] came out at 4 µg/mL (≈ 8.04 µM). Moreover, the MIC in data set [14] is 16 µg/mL (≈ 32.1 µM). In data set [15], the MIC turned out to be 8 µg/mL (≈ 16.1 µM). In addition, the “Fold higher growth inhibition than doxorubicin” value in data set [16] (HepG2 and MCF-7, relative to doxorubicin) is listed as 2–3 fold. Moreover, the IC50 in data set [16] was in the range of 1170 to 2790 nM. This compound showed an IC50 in data set [17] of 7.27 ± 0.11 nM. Besides, the “MIC range, antibacterial and antifungal” value in data set [18] is 4 to 16 µg/mL. The compound further returned a minimum inhibitory concentration (MIC) in [19] of 8 µg/mL (≈ 16.1 µM). This compound also showed an MIC in data set [21] of 8 µg/mL (≈ 16.1 µM).
As for `COc1ccc(-c2cc(-c3ccco3)nc3sc(C(N)=O)c(N=C4CCCCC4)c23)cc1` [II], the “MIC B. cereus” value in [23] was 15.60 µg/mL (≈ 35 µM). Moreover, the “MIC S. aureus” value in [1] is 15.60 µg/mL (≈ 35 µM). Further, the “MIC E. coli” value in data set [2] is 15.60 µg/mL (≈ 35 µM).

For orientation: IC50 means the midpoint of a concentration-inhibition curve. Usually MIC stands for the lowest concentration found to suppress growth. As a reminder, the melting point is the temperature, or range, at which the solid turns liquid.
